According to ChEMBL document CHEMBL4385622, “Discovery of velpatasvir (GS-5816): A potent pan-genotypic HCV NS5A inhibitor in the single-tablet regimens Vosevi® and Epclusa®” (Bioorg Med Chem Lett, 2019):

What was measured:
Conditions in all cases: in vivo, read-out: Fabs
[1] = Fraction absorbed in dog; type: ADME, Canis lupus familiaris
[2] = Fraction absorbed in cynomolgus monkey; type: ADME, Macaca fascicularis
[3] = Fraction absorbed in rat; type: ADME

Row | SMILES | Fa [1] | Fa [2] | Fa [3]
1 | COC(=O)N[C@@H](C(=O)N1CCC[C@H]1c1ncc(-c2cc3c4c(c2)OCc2cc(-c5cnc([C@@H]6CCCN6C(=O)[C@H](NC(=O)OC)c6ccccc6)[nH]5)cc(c2-4)OC3)[nH]1)c1ccccc1 | 34% | 2% | 2%
2 | COC(=O)N[C@@H](C(=O)N1C[C@@H](C)C[C@H]1c1ncc(-c2cc3c4c(c2)OCc2cc(-c5cnc([C@@H]6C[C@H](C)CN6C(=O)[C@H](NC(=O)OC)c6ccccc6)[nH]5)cc(c2-4)OC3)[nH]1)c1ccccc1 | 30% |  | 2%
3 | COC[C@H]1C[C@@H](c2ncc(-c3cc4c5c(c3)OCc3cc(-c6cnc([C@@H]7CC[C@H](C)N7C(=O)[C@@H](NC(=O)OC)C(C)C)[nH]6)cc(c3-5)OC4)[nH]2)N(C(=O)[C@H](NC(=O)OC)c2ccccc2)C1 |  | 26% | 29%
4 | COC(=O)N[C@@H](C(=O)N1[C@@H](C)CC[C@H]1c1ncc(-c2cc3c4c(c2)OCc2cc(-c5cnc([C@@H]6CC[C@H](C)N6C(=O)[C@H](NC(=O)OC)c6ccccc6)[nH]5)cc(c2-4)OC3)[nH]1)c1ccccc1 | 43% |  | 3%

Continued, values first:

Row | Fa [1] | Fa [2] | Fa [3] | SMILES
5 |  |  | 11% | COC[C@H]1C[C@@H](c2nc3ccc4cc5c(cc4c3[nH]2)OCc2cc(-c3cnc([C@@H]4C[C@H](C)CN4C(=O)[C@@H](NC(=O)OC)C(C)C)[nH]3)ccc2-5)N(C(=O)[C@@H](NC(=O)OC)C(C)C)C1
6 | 56% |  | 16% | COC[C@H]1C[C@@H](c2nc3ccc4cc5c(cc4c3[nH]2)OCc2cc(-c3cnc([C@@H]4CCCN4C(=O)[C@@H](NC(=O)OC)C(C)C)[nH]3)ccc2-5)N(C(=O)[C@@H](NC(=O)OC)C(C)C)C1
7 | 54% |  | 31% | COC(=O)N[C@H](C(=O)N1CCC[C@H]1c1ncc(-c2ccc3c(c2)COc2c-3ccc3c2ccc2nc([C@@H]4CCCN4C(=O)[C@@H](NC(=O)OC)C(C)C)[nH]c23)[nH]1)C(C)C
8 |  |  | 13% | COC[C@H]1C[C@@H](c2ncc(-c3ccc4c(c3)COc3cc5c(ccc6nc([C@@H]7C[C@@H]8C[C@H]8N7C(=O)[C@@H](NC(=O)OC)C(C)C)[nH]c65)cc3-4)[nH]2)N(C(=O)[C@H](NC(=O)OC)c2ccccc2)C1
9 | 100% | 53% | 27% | COC(=O)N[C@H](C(=O)N1[C@@H](C)CC[C@H]1c1ncc(-c2ccc3c(c2)COc2cc4c(ccc5nc([C@@H]6CC[C@H](C)N6C(=O)[C@@H](NC(=O)OC)C(C)C)[nH]c54)cc2-3)[nH]1)C(C)C
10 |  |  | 4% | COC(=O)N[C@H](C(=O)N1C[C@@H](C)C[C@H]1c1nc2ccc3cc4c(cc3c2[nH]1)OCc1cc(-c2cnc([C@@H]3C[C@H](C)CN3C(=O)[C@H](NC(=O)OC)c3ccccc3)[nH]2)ccc1-4)C(C)C
